Ten compounds from ChEMBL document CHEMBL1201862, “PubChem BioAssay data set” (2004) can be followed below.

As usually defined, the IC50 is the point on the concentration scale where inhibition reaches its midpoint. For orientation: AC50 means the concentration at which the activity in the assay is half-maximal. For orientation: EC50 means the concentration needed to bring the measured effect to its halfway point.

Activity calls are given as the source filed them. Some results are limits rather than exact numbers.

Assay [1] deals with Nonstructural protein 1 (Influenza A virus, UniProt Q194T2). The format is functional, Influenza A virus (A/California/07/2009(H1N1)).
Nonstructural protein 1, sequence (Q194T2 whole entry): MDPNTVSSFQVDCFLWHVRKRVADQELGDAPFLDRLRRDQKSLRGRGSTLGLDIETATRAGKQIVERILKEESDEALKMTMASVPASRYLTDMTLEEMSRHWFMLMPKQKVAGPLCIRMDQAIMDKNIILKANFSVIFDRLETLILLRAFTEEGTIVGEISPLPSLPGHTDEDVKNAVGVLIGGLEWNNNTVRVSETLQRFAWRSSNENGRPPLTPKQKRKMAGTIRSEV
Assay [2] relates to HEK293. Briefly: EBV LMP1 TES2 canonical NF-kB signalling blockers – cell-based, HEK293, luciferase, cherry-pick, dose response (AID 588343). The conditions noted are these: Homo sapiens. It is filed as functional.
For assay [3], the target named is T1, Rac GTPase-activating protein 1 (Homo sapiens, UniProt Q9H0H5).
T1 sequence (Q9H0H5 whole entry): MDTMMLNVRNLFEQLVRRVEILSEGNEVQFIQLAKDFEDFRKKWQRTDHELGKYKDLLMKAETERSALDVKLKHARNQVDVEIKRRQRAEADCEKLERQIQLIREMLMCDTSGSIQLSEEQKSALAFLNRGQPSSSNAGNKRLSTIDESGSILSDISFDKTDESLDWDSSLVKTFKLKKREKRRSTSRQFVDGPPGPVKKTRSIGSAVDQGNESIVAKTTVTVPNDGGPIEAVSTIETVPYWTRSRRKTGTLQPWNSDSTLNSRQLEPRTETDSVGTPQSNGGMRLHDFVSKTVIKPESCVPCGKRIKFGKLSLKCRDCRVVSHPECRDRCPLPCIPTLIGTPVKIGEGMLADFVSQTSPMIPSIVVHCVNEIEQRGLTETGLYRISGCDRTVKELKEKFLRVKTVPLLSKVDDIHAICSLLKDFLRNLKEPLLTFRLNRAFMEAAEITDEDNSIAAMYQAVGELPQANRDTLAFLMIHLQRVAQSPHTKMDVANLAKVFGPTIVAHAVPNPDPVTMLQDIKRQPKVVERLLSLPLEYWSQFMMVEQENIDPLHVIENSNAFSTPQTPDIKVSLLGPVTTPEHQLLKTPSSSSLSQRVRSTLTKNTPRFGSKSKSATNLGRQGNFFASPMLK
Briefly: blockers of MgcRacGAP-driven Rac1 GTP hydrolysis – biochemical, ADP Hunter fluorescence, primary and confirmatory, confirmation (AID 624330). It is filed as functional.

Assay [4] can be described thus: blockers of HIV-1 envelope-mediated cell-cell fusion – cherry-pick, dose response (AID 652057). The format is functional, cell-based.
Assay [5] can be described thus: viability loss in CEM21 cells – cell-based, CellTiter-Glo luminescence, cherry-picked, cytotoxicity control for viral fusion inhibitor project, dose response (AID 652042).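 Also: potency for signal decrease meaning cytotoxicity.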 The format is functional. A general note: Cellular ATP, detected with luciferase, serves as a proxy for viable cell number.
Assay [6] in a line: HIV-1 AD8 envelope cell-cell fusion blockers – cherry-pick, dose response (AID 652062).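 Also: luciferase signal from cell-cell fusion driven by HIV-1 clade B AD8 Env; potency is for inhibitors of fusion seen as a drop in luminescence.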 It is filed as functional, cell-based.
Assay [7] addresses SUMO-activating enzyme (Homo sapiens, UniProt Q9UBT2). Briefly: blockers of UBC9-mediated SUMO conjugation – biochemical, AlphaScreen, SUMOylation inhibitor project, confirmation (AID 2018). It is filed as functional. (In general: Alpha assays give light when donor and acceptor beads are brought close together.)
Assay [8] concerns the target Cytochrome P450 2C9 (Homo sapiens, UniProt P11712).
The target in assay [9] is T2, E3 ubiquitin-protein ligase XIAP (Homo sapiens, UniProt P98170). Briefly: Counter Screen using XIAP-Bir3 for Chemical Antagonists of Bir1/2 domains of IAP-family anti-apoptotic proteins. [Related pubchem assays (depositor defined):AID1018, AID1449, AID1514, AID1638, AID1749, AID1750, AID488957, AID488963]. Background: A counterscreen serves to expose hits that act by an unwanted route or on another target.
T2 sequence (P98170 whole entry): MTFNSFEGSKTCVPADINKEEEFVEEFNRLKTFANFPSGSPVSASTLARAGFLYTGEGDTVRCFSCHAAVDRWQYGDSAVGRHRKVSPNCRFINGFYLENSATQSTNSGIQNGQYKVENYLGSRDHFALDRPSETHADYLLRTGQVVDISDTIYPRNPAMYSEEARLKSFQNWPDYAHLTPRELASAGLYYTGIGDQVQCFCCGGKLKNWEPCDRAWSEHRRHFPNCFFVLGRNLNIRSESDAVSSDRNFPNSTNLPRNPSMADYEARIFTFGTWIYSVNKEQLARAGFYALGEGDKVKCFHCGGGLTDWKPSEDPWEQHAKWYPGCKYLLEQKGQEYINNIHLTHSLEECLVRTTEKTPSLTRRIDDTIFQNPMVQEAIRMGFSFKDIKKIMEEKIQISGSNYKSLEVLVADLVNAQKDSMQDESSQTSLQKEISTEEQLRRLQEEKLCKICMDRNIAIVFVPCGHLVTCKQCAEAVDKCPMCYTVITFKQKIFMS

Assay [10] addresses T2, E3 ubiquitin-protein ligase XIAP. Briefly: small molecules displacing peptide from XIAP – biochemical, IAP family, fluorescence polarization (AID 1018). The format is functional.
Assay [11] addresses T3, Carboxy-terminal domain RNA polymerase II polypeptide A small phosphatase 1 (Homo sapiens, UniProt Q9GZU7).
T3 sequence (Q9GZU7 whole entry): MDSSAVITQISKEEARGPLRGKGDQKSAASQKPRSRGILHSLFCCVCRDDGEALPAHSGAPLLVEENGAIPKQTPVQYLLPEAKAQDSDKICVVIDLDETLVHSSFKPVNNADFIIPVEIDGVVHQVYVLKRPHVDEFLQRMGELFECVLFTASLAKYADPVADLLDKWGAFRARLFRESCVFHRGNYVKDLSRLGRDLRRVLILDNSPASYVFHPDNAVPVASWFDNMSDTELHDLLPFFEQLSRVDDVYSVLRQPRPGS
Briefly: CTDSP1 inhibitors, concentration-response, biochemical, absorbance readout, ultra-high-throughput screen actives (AID 540297). It is filed as functional.

In assay [12] the test system is HEK293. Briefly: inhibition of NOD1-driven NF-kB reporter – cell-based, luminescence, uHTS, primary screen (AID 1578). It is filed as functional. Conditions: Homo sapiens.
The subject of assay [13] is HEK293. Briefly: cells. The format is functional, cell-based. Conditions: Homo sapiens.
For assay [14], the system named is HEK293. Briefly: cells. It is filed as functional, cell-based. Conditions: Homo sapiens. This is another data set of the same source.
In assay [15] the test system is HEK293. Briefly: NOD2 signaling inhibitors in MDP-stimulated cells, cell-based, uHTS, luminescence (AID 2001). The format is functional. Conditions: Homo sapiens.
Assay [16] relates to INS1. Briefly: INS-1E survival protection against cytokine death – cell-based, luminescence, retest, dose response (AID 449756).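 Also: cell death triggered by IL-1 beta plus TNF-alpha plus IFN-gamma mixture; protective hits raise ATP signal compared with cytokine alone wells.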 It is filed as functional. Conditions: Rattus norvegicus.
Assay [17] has as its target Glyceraldehyde-3-phosphate dehydrogenase (Homo sapiens, UniProt P04406).
For assay [18], the target named is T4, High affinity choline transporter 1 (Homo sapiens, UniProt Q9GZV3).
T4 sequence (Q9GZV3 whole entry): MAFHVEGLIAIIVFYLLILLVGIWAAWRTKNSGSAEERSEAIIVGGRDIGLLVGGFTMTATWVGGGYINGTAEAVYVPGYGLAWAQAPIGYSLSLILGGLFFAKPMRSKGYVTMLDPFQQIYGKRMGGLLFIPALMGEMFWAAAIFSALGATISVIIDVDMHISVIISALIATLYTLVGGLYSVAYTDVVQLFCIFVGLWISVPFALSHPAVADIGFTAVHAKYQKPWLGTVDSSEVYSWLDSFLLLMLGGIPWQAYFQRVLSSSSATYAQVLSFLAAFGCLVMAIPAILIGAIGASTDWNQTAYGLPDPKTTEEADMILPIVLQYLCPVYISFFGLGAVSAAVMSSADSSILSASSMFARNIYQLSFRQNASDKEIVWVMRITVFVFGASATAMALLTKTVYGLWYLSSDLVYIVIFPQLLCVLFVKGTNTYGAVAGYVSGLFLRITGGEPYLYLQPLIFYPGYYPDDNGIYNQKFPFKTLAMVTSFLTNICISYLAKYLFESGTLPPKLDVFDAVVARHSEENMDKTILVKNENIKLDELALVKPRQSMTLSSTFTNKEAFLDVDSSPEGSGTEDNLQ
Briefly: human choline transporter blockers, potency – cell-based, 5-point CRC, membrane potential dye, dose response (AID 504840). The format is functional.

Glyceraldehyde-3-phosphate dehydrogenase, sequence (P04406 whole entry): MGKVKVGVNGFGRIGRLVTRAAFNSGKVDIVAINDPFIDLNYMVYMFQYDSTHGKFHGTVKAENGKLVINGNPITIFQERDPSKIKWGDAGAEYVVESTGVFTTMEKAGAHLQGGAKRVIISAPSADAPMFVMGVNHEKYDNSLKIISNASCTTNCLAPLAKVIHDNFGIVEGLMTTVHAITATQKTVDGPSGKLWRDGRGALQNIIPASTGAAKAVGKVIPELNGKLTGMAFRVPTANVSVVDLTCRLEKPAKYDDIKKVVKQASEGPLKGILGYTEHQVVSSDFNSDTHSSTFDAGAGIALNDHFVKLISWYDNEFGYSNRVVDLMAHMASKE
Cytochrome P450 2C9, sequence (P11712 whole entry): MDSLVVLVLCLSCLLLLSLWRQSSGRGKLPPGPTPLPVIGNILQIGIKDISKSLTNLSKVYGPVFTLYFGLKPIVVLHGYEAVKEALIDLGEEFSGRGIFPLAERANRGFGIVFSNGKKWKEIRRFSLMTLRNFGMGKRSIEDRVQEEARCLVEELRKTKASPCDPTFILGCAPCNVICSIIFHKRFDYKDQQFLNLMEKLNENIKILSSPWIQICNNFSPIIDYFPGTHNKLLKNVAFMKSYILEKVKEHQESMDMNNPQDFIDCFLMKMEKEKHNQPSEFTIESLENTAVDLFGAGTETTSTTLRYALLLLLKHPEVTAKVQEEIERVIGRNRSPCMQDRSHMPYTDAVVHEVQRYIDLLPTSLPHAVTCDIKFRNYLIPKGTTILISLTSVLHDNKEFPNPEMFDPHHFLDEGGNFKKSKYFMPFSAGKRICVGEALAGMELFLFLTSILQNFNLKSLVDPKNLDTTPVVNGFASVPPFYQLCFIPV
SUMO-activating enzyme, sequence (Q9UBE0 whole entry): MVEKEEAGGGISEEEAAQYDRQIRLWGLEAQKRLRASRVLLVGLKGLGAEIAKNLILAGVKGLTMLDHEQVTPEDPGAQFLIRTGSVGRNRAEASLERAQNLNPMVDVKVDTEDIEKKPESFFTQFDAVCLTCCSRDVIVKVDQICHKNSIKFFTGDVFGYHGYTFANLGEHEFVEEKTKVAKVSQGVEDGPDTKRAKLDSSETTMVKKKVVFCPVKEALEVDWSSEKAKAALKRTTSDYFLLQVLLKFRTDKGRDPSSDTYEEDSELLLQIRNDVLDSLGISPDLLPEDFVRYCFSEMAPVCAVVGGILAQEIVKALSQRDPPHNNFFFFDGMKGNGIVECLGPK
SUMO-activating enzyme, sequence (Q9UBT2 whole entry): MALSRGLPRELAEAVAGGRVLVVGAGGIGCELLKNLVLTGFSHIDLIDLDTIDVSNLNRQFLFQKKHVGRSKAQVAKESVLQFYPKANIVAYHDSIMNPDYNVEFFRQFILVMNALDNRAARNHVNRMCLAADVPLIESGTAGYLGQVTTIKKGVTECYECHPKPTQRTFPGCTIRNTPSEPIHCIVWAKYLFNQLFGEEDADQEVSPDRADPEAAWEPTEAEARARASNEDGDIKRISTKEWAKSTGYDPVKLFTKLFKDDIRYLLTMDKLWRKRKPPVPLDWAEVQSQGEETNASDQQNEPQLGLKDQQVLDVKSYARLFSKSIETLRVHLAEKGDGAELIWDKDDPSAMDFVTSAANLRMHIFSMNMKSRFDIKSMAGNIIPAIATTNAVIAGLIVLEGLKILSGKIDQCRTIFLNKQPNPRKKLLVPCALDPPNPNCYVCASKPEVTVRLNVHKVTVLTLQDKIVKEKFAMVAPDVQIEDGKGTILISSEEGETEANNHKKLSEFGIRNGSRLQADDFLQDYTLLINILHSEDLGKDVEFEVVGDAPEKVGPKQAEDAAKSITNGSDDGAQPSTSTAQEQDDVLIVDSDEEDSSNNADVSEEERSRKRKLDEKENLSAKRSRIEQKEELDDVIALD

As for `Oc1ccc(C=NNc2ccccn2)c(O)c1`, the IC50 in assay [1] was 2.71 µM (active); in assay [3], 27 µM (active). The half-maximal activity concentration (AC50) in [2] is 10.4 µM (active); in assay [4], 8.53 µM (active); in [5], 8.15 µM (active); in [6], 5.5 µM (active).

`CC(=O)Nc1ccc(NC(=O)Cn2c(-c3ccc(F)cc3)cnc2SCC(=O)Nc2c(C)cccc2C)cc1`: the 50% inhibitory concentration (IC50) in assay [7] was 61.6 µM (active). For the same compound, the AC50 in assay [8] is 17.8 µM (inconclusive).

In the case of `COc1ccc(S(=O)(=O)N2CCOC2CNC(=O)C(=O)NCCc2c[nH]c3ccccc23)cc1` (centres undefined), the IC50 in [9] is > 100 µM (inactive); in assay [10], > 100 µM (not active).

As to `O=C(N/N=C/c1ccc2c(c1)OCO2)c1cc(-c2ccco2)nc2ccccc12`, the concentration for half-maximal inhibition (IC50) in [11] was 10.8 µM (active).

Regarding `COc1cc(/C=C(/C(=O)c2cccs2)c2nc3ccccc3[nH]2)ccc1O`, the EC50 in [12] is 12.1 µM (active). Besides, the values for the IC50 in [13], in assay [14] and in assay [15] were 2.96 µM (active), > 20 µM (inactive) and 4.02 µM (active), respectively. Moreover, the AC50 in [16] is 18 µM (active).

For `O=C(c1cc(-c2cc(F)c(Cl)cc2Cl)n[nH]1)N(CCO)CCO`, the concentration for half-maximal inhibition (IC50) in assay [17] is > 10 µM (inconclusive).

As for `Cc1cccc(CCNC(=O)C2CCCN(c3ncnc4c3nc3n4CCCCC3)C2)c1` (centres undefined), in assay [18], the IC50 is 11.8 µM (active).

`O=C(Cn1cnc2c(nnn2-c2ccccc2)c1=O)NCc1ccc(F)cc1`: in assay [11], the IC50 was 6.76 µM (active).

Consider `C/C(CC(=O)NC1CCCCC1)=N\NC(=O)Cc1ccc(-c2ccccc2)cc1`, for which the concentration for half-maximal inhibition (IC50) in [11] is 7.87 µM (active).

Turning to `COc1ccc(NS(=O)(=O)c2ccc3oc(SC(C)C(N)=O)nc3c2)cc1` (centres undefined), in assay [12], the 50% effective concentration (EC50) was 6.14 µM (active). Besides, the IC50 in assay [13] was > 20 µM (inactive); in assay [14], > 20 µM (inactive); in assay [15] it was 20 µM (inactive).
